This is an account of results in article PMC9822400, “The Lipophilic Purine Nucleoside—Tdp1 Inhibitor—Enhances DNA Damage Induced by Topotecan In Vitro and Potentiates the Antitumor Effect of Topotecan In Vivo” (Molecules, 2022).

Series [1] addresses T1, purified recombinant human Tdp1 (Homo sapiens, UniProt Q9NUW8).
T1 construct: made in house
The series is described as follows: Real-time detection of Tdp1 activity (removal of BHQ1 from a 5′-FAM 16-nt oligonucleotide, fluorescence). It counts as biochemical. Conditions: 1.5 nM Tdp1, 50 nM oligonucleotide, 25 °C, three independent experiments. On the procedure: In this work, four natural nucleosides (1-4) and […] aromatic lipophilic derivatives of purine nucleosides (5a-f, 6a-d) were tested for Tdp1 activity. The used test system was based on the enzyme’s ability to remove Black Hole Quencher 1 (BHQ1) from the 3′ end of a 5′ FAM 16-nt oligonucleotide. As a result, an increase in FAM fluorescence was detected and the obtained kinetic curves were used to calculate the IC50 parameter (the concentration of the inhibitor at which the enzyme activity is reduced by half). We have found potent Tdp1 inhibitors with IC50 in the range from 0.3 to 7 μM (Table 1).
Purified human recombinant Tdp1 was prepared as described earlier. Real-time detection of Tdp1 activity was reported in our previous work. The approach consists of a fluorescence intensity measurement of the reaction of quencher removal from the fluorophore-quencher coupled DNA oligonucleotide catalyzed by Tdp1 in the presence of the inhibitor (the control samples contained 1% DMSO). The biosensor was single-stranded oligonucleotide (5′-[FAM] AAC GTC AGGGTC TTC C [BHQ]-3′) containing fluorophore at the 5′ end (5,6-FAM) and a Black Hole Quencher 1 (BHQ) at the 3′ end, and was synthesized in the Laboratory of nucleic acid chemistry at the Institute of Chemical Biology and Fundamental Medicine SB RAS, Novosibirsk, Russia. The reactions were incubated at a constant temperature 25 °C in a POLARstar OPTIMA fluorimeter, BMG LABTECH, GmbH, to measure fluorescence every 55 s (Ex485/Em520 nm) during the linear phase (here, the data are from 0 to 8 min). […] The IC50 values were determined using a six-point concentration response curve in three independent experiments and calculated using MARS Data Analysis 2.0 (BMG LABTECH).

Series [2] in a line: Cell culture cytotoxicity assay (EZ4U colorimetric test). The note with it: human, HeLa cells. The series is classed as cell-based. From the text: Tdp1 inhibitors are intended to be used in therapeutic cocktails to sensitize tumors to the action of anticancer Top1 poisons. […] To assess the toxicity of the compounds, their effect on the survival of the HeLa cell line (human cervical cancer) was studied using the colorimetric test of metabolic activity of cells EZ4U, which reflects the survival of cells in the presence of the studied compounds. The EZ4U assay is based on the ability of living cells to reduce the colorless tetrazolium salt XTT [sodium 3,3′-{1-(phenylamino)-carbonyl-3,4-tetrazolium) -bis(4-methoxy-6-nitro)-benzene sulfonic acid hydrate] to an orange water-soluble formazan product. This method was used to investigate the intrinsic cytotoxicity of promising inhibitors discovered in the course of this work, as well as the toxicity of their combination with Tpc.
Cytotoxicity of the compounds was examined on human cell lines HeLa using an EZ4U colorimetric test (Biomedica, Vienna, Austria). The HeLa cell line was obtained from the Russian Cell Culture Collection (RCCC) Institute of Cytology RAS, St. Petersburg, Russia. The cells were grown in DMEM/F12 medium (Gibco, Thermo Fisher Scientific, Waltham, MA, USA), with 1x GlutaMAX (Gibco, Thermo Fisher Scientific, Waltham, MA, USA), 50 IU/mL penicillin, 50 μg/mL streptomycin (MP Biomedicals), and in the presence of 10% fetal bovine serum (Biolot, Saint-Petersburg, Russia) in a 5% CO2 atmosphere. Since lipophilic nucleosides are soluble in DMSO, cells were grown in the presence of 1% DMSO in the control wells. After the formation of a 30–50% monolayer, the tested compounds were added to the medium, and the cell culture was monitored for 3 days. The values were normalized to their own control in each case. At least three independent experiments were carried out. The 50% cytotoxic concentration (CC50) was defined as the compound concentration that reduced the cell viability by 50% when compared to the untreated controls. The CC50 value was determined using OriginPro 8.6.0 software (OriginLab, Northampton, MA, USA). The measurements were carried out in three independent experiments.

Series [3] deals with T2, recombinant human Tdp1 (Homo sapiens, UniProt Q9NUW8).
T2 construct: made in house
T2 sequence (Q9NUW8 whole entry): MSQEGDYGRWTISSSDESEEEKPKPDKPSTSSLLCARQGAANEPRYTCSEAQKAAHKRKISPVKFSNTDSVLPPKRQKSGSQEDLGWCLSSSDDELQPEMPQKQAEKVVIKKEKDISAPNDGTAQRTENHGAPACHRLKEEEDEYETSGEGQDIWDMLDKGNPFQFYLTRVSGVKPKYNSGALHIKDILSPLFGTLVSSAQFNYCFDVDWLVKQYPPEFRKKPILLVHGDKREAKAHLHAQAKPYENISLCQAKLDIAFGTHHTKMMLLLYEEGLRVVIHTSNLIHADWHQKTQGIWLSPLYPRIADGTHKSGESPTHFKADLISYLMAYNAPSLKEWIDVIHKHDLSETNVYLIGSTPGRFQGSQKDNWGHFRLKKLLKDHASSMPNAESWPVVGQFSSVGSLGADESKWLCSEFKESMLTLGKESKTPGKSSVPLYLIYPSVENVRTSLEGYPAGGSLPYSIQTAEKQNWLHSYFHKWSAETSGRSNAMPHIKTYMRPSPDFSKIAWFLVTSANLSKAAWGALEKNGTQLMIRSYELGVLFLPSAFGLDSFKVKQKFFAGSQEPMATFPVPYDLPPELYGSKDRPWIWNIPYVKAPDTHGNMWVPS
The series is described as follows: Steady-state kinetics of the Tdp1 reaction, type of inhibition (Vmax, KM). The series is classed as biochemical. Conditions: dependence of Vmax and KM on inhibitor concentration. The protocol: Then, the values of the Vmax and KM parameters were calculated from the kinetic curves obtained. The conclusion about the type of inhibition was made based on the dependence type of the calculated parameters on the concentration of the inhibitor. […] Such inhibitors, supposedly, will be more specific inhibitors of Tdp1, because they will bind to the enzyme only in the presence of the enzyme-substrate complex. […] For this reason, this compound needs additional study of its inhibition mechanism by other methods.
To determine the kinetic parameters: apparent maximum rate of enzymatic reaction (Vmax), Michaelis constant (KM), and possible inhibition mechanism, steady-state kinetic experiments of Tdp1 enzymatic reaction were carried out at […] fixed concentrations of the substrate with various inhibitor concentrations. The standard reaction mixtures (200 μL) contained 56 nM, 96 nM, 163 nM, 277 nM, 470 nM or 800 nM oligonucleotide substrate, testable inhibitor, 1.5 nM recombinant human Tdp1 and reaction buffer components (50 mM Tris-HCl, pH 8.0, 50 mM NaCl, 7 mM β-mercaptoethanol). After the addition of the enzyme, the reaction mixtures were incubated at a constant temperature of 26 °C and measured in a POLARstar OPTIMA fluorimeter, BMG LABTECH, GmbH, to measure fluorescence every 55 s (Ex485/Em520 nm) during the linear phase (data from 0 to 8 minutes). The initial data (kinetic curves) were obtained in three independent experiments and statistically processed in the software OriginPro 8.6.0.

“Also recorded” adds a separate entry of the source.

T1 sequence (Q9NUW8 whole entry): as above

With `O=C(OC[C@H]1O[C@@H](n2cnc3c(Cl)nc(F)nc32)[C@H](OC(=O)c2ccccc2)[C@@H]1OC(=O)c1ccccc1)c1ccccc1` [compound 6c, 2-Fluoro-6-chloro-9-(2,3,5-tri-O-benzoyl-β-D-ribofuranosyl)purine], in series [1], the IC50 turned out to be 1000 ± 200 nM. For the same molecule, in series [2], the CC50 at 3 days is 35000 ± 20000 nM. Moreover, in series [3], the “Type of inhibition of Tdp1” value is recorded as “uncompetitive type of inhibition; also recorded: nonlinear dependence”.

`O[C@@H]1[C@H](O)[C@@H](COC(c2ccccc2)(c2ccccc2)c2ccccc2)O[C@H]1n1cnc2c(NC(c3ccccc3)(c3ccccc3)c3ccccc3)ncnc21` [compound 5f]: the IC50 in series [1] came out at 300 ± 60 nM. In series [2], the CC50 at 3 days was more than 100000 nM. Besides, in series [3], the “Type of inhibition of Tdp1” value is reported as “uncompetitive type of inhibition”.

For the molecule `O=C(OC[C@H]1O[C@@H](n2cnc3c(Cl)nc(Cl)nc32)[C@H](OC(=O)c2ccccc2)[C@@H]1OC(=O)c1ccccc1)c1ccccc1` [compound 6d, 2,6-dichloro-9-(2,3,5-tri-O-benzoyl-β-D-ribofuranosyl)purine], the IC50 in series [1] worked out at 820 ± 20 nM. The half-maximal cytotoxic concentration (CC50) at 3 days in series [2] was determined as 33000 ± 15000 nM. For the same molecule, the “Type of inhibition of Tdp1” value in series [3] was “uncompetitive type of inhibition; also recorded: uncompetitive mechanism”.

The term IC50 denotes the concentration that gives 50% inhibition. A word on the CC50: it is the concentration giving 50% cytotoxicity.
